Here are results for five molecules from US10556890B2, “Heteroaryl compounds and methods of use thereof” (Sunovion Pharmaceuticals Inc., priority 2012, dated 2020).

For one assay, the system named is C57Bl/6J mice. Briefly: Pre-pulse Inhibition (PPI) of startle in mice. More on the design: key: −: No change in PPI; +: Significant increase in PPI at one pre-pulse intensity (P value < 0.05); ++: Significant increase in PPI at two pre-pulse intensities (P value < 0.05); +++: Significant increase in PPI at three pre-pulse intensities (P value < 0.05). The format is in vivo. The settings on record: 30 min prior to PPI test, vs. vehicle. As to the method: (§1) Anti-psychotic like activity of the compounds was evaluated […] using the PCP hyperactivity (in rats) and Pre-Pulse Inhibition (PPI; in mice) models of schizophrenia.
Animals—PPI: Male C57Bl/6J mice from Jackson Laboratories (Bar Harbor, Me.) were used in these studies. Upon receipt, mice were assigned unique identification numbers (tail marked) and were group housed with 4 mice per cage in OptiMICE ventilated cages. All animals remained housed in groups of four during the remainder of the study. All mice were acclimated to the colony room for at least one week prior to testing. During the period of acclimation, mice were examined on a regular basis, handled, and weighed to assure adequate health and suitability. Animals were maintained on a 12/12 light/dark cycle. The room temperature was maintained between 20 and 23° C. with a relative humidity maintained between 30% and 70%. Chow and water were provided ad libitum for the duration of the study. In each test, animals were randomly assigned across treatment groups.
The acoustic startle is an unconditioned reflex response to an external auditory stimulus. Prepulse inhibition of startle (PPI) refers to the reduction in the startle response caused by the presentation of a low-intensity auditory stimulus prior to the startle stimulus. The PPI paradigm is used for the study of schizophrenia and antipsychotic action due to the similarities between the results from human and rodent studies. PPI has been used as a tool for the assessment of deficiencies in sensory-motor gating observed in schizophrenia and to screen for potential antipsychotic drugs. Various psychotomimetic drugs such as PCP can disrupt PPI. In mice, antipsychotic drugs such as clozapine can reverse the disruption of PPI induced by PCP.
Mice were placed in the PPI chambers (Med Associates) for a 5 min session of white noise (70 dB) habituation. After the habituation period the test session was initiated. The session started with a habituation block of 6 presentations of the startle stimulus alone, followed by 10 PPI blocks, each of which consisted of 6 different types of trials. Trial types were: ‘null’ (no stimuli), ‘startle’ (120 dB), ‘startle plus prepulse’ (4, 8 and 12 dB over background noise, i.e., 74, 78 or 82 dB) and ‘prepulse’ (82 dB). Trial types were presented in a random order within each block. Each trial started with a 50 ms stimulus-free period during which baseline movements were recorded. This was followed by a subsequent 20 ms period during which the prepulse stimulus was presented and responses to the prepulse measured. After a further 100 ms period, the startle stimulus was presented for 40 ms and responses recorded for 100 ms from startle onset. Responses were sampled every ms. The inter-trial interval was variable with an average of 15 s (range from 10 to 20 s). In ‘startle’ trials the basic auditory startle response was measured. The basic startle response was calculated as the mean startle response of all ‘startle’ trials (i.e., excluding the first habituation block). In ‘startle plus prepulse’ trials the degree of inhibition of the normal startle was calculated and expressed as a percentage of the basic startle response.
Mice were treated with vehicle, haloperidol (1 mg/kg; i.p) or test compound 30 min prior to PPI test. The PPI enclosures were cleaned following each test.

The next assay relates to Sprague Dawley rats. Briefly: PCP-induced hyperactivity in rats. Format: in vivo. More on the design: key: −: No inhibition of PCP hyperactivity; +: Significant inhibition of PCP hyperactivity (P value < 0.05). The settings on record: vs. vehicle + PCP. As to the method:
as §1
Animals: PCP Hyperactivity: Male Sprague Dawley rats from Harlan (Indianapolis, Ind.) were used in these studies. Upon receipt, rats were assigned unique identification numbers and were group housed with 3 rats per cage in polycarbonate cages with micro-isolator filter tops. All rats were examined, handled, and weighed prior to initiation of the study to assure adequate health and suitability. The rats were maintained at 12/12 light/dark cycle with lights on at 7:00 am EST. The room temperature was maintained between 20 and 23° C. with a relative humidity maintained around 50%. Chow and water were provided ad libitum for the duration of the study. For each test, animals were randomly assigned across treatment groups.
The test chambers were Plexiglas rectangular chambers (24×45 cm) that fit inside two steel frames (9.5×18 inches) and were fitted with two-dimensional 4×8 beam grids to monitor horizontal and vertical locomotor activity (Hamilton Kinder, San Diego, Calif.). The analysis was configured to divide the open field of the chamber into a center and a periphery zone. Distance traveled was measured from horizontal beam breaks as the rat traveled whereas rearing activity was measured from vertical beam breaks.
Rats were administered with vehicle, test compound, or risperidone (0.5-1 mg/kg; i.p) and placed in the test chambers for 30 min measurement of baseline activity. Rats were then injected with either water or PCP (2.5 mg/kg; s.c) and placed back in the test chambers for a 60-minute session. At the end of each test session the chambers were thoroughly cleaned.

Where [1] appears, read: 3 mg/kg Compound + PCP (2.5 mg/kg s.c.).
Setting [2] is: 10 mg/kg Compound + PCP (2.5 mg/kg s.c.).
The mark [3] stands for this setting: 30 mg/kg Compound + PCP (2.5 mg/kg s.c.).

Structures are written as SMILES.

Turning to `Cl.Fc1sc2ccccc2c1C1C=CN=CN1` (stereo not drawn) [Compound 15], the “Effect on Pre-pulse Inhibition (PPI)” value with C57Bl/6J mice (3 mg/kg) is recorded as “−”; in the assay with C57Bl/6J mice (10 mg/kg) it was “+”; in the assay with C57Bl/6J mice (30 mg/kg), “++”. Further, the “Total Distance Traveled (cm), PCP-induced hyperactivity” value (from here on “Total Distance Traveled (cm)”) in the assay on Sprague Dawley rats (setting [1]), in the assay on Sprague Dawley rats (setting [2]) and in the assay on Sprague Dawley rats (setting [3]) was “−” throughout.

Take `Cc1cc(C2C=CN=CN2)cs1.Cl` (stereo not drawn) [Compound 21]: the “Effect on Pre-pulse Inhibition (PPI)” value in the assay with C57Bl/6J mice (3 mg/kg), with C57Bl/6J mice (10 mg/kg) and in the assay on C57Bl/6J mice (30 mg/kg) was “−” throughout. The “Total Distance Traveled (cm)” value with Sprague Dawley rats (setting [2]), in the assay on Sprague Dawley rats (setting [3]) and with Sprague Dawley rats (100 mg/kg Compound + PCP (2.5 mg/kg s.c.)) was “−” throughout.

Take `Cc1sc2ccccc2c1C1C=CN=CN1` (stereo not drawn) [Compound 3]: the results for the “Effect on Pre-pulse Inhibition (PPI)” value in the assay on C57Bl/6J mice (3 mg/kg), in the assay on C57Bl/6J mice (10 mg/kg) and in the assay with C57Bl/6J mice (30 mg/kg) were “+”, “+” and “+++”, respectively. Further, the “Total Distance Traveled (cm)” value with Sprague Dawley rats (setting [1]) is recorded as “−”; in the assay on Sprague Dawley rats (setting [2]) it was “+”; in the assay on Sprague Dawley rats (setting [3]), “+”.

On to `Cc1c(C2C=CN=CN2)sc2ccccc12.Cl` (stereo not drawn) [Compound 20], for which the “Effect on Pre-pulse Inhibition (PPI)” value with C57Bl/6J mice (3 mg/kg), in the assay with C57Bl/6J mice (10 mg/kg) and in the assay on C57Bl/6J mice (30 mg/kg) was “−” each time. In addition, the “Total Distance Traveled (cm)” value in the assay on Sprague Dawley rats (setting [1]) is on record as “+”; with Sprague Dawley rats (setting [2]) it was “−”; in the assay with Sprague Dawley rats (setting [3]), “+”.

With `Fc1ccc2c(c1)N=CNC2c1c(F)sc2ccccc12` (stereo not drawn) [Compound 239], the “Effect on Pre-pulse Inhibition (PPI)” value in the assay with C57Bl/6J mice (3 mg/kg) is on record as “−”; with C57Bl/6J mice (10 mg/kg), “−”; in the assay with C57Bl/6J mice (30 mg/kg) it was “+++”. Besides, the “Total Distance Traveled (cm)” value with Sprague Dawley rats (setting [1]), in the assay on Sprague Dawley rats (setting [2]) and in the assay with Sprague Dawley rats (setting [3]) was “+ (increase)” in each case.
